Experiments:
[1] = system: import of hSIRT3 into isolated mammalian mitochondria; assay: Import of radiolabeled hSIRT3 into isolated mitochondria; details: antimycin 8 μM, oligomycin 20 μM and valinomycin 1 μM added together to dissipate the transmembrane potential
Experimental: Import into isolated mitochondria was carried out as previously reported (22). Proteins were synthesized in the presence of [^35S]-methionine by coupled transcription-translation in reticulocyte lysate (Promega, Madison, Wis.) (23). In vitro translation reactions were centrifuged at 108,000×g, 2° C. for 15 min and adjusted to 250 mM sucrose. Import reactions contained 5% (v/v) reticulocyte lysate in import buffer (3% (w/v) fatty-acid free bovine serum albumin (BSA), 250 mM sucrose, 80 mM KCl, 5 mM MgCl2, 2 mM KH2PO4, 5 mM L-methionine, 10 mM 3-[N-morpholino]propanesulfonic acid-KOH, pH 7.2). In each import reaction, 50 μg of freshly isolated mammalian mitochondria were mixed with radiolabeled proteins and incubated at 30° C. ATP (2 mM) and sodium succinate (10 mM) were added to maintain coupling of isolated mitochondria. Import was stopped by addition of valinomycin (1 μM) and transfer to 0°C.
Where indicated, samples were treated with proteinase K (50 μg/ml) for 10 min on ice. Protease treatment was stopped by addition of 2 mM phenylmethylsulfonyl fluoride (PMSF). Mitochondria were reisolated by centrifugation at 10,000×g for 5 min at 4° C., washed in SEM buffer and recentrifuged as above. Mitochondrial pellets were resuspended in SDS sample buffer containing dithiothreitol (DTT) and heated to 95° C. for 5 min. Samples were subjected to SDS-PAGE. Dried gels were exposed to Biomax MR film (Kodak, Rochester, N.Y.) at −70° C. and analyzed on a Fuji FUJIX BAS 1000 phosphorimager. […]
FIG. 4. […] After reisolation of mitochondria and SDS-PAGE, the amounts of imported proteins were quantified by phosphorimaging. FIG. 4B, Quantitation of imported protein by phosphorimaging. […] Reisolated and washed mitochondria were lysed in SDS sample buffer and analyzed by SDS-PAGE. […] FIG. 4E, Import efficiency of individual hSIRT3 mutants was quantitated in relation to their standards by phosphorimaging. […]

hSIRT3 = target: T1, hSIRT3 (Homo sapiens, UniProt Q9NTG7); assay: In vitro deacetylase assay on mitochondrial lysates of hSIRT3-transfected cells; type: biochemical; details: lysates of hSIRT3-transfected HEK293T cells, compared with untransfected lysates
T1 construct: proteolytically cleaved by mitochondrial matrix processing peptidase (MPP) between residues Ser101 and Ilel02; expressed in transfected cells; host or cells: HEK293T cells, mitochondrial lysate in TXIP-1 buffer
T1 sequence (Q9NTG7 102-399 limits assumed): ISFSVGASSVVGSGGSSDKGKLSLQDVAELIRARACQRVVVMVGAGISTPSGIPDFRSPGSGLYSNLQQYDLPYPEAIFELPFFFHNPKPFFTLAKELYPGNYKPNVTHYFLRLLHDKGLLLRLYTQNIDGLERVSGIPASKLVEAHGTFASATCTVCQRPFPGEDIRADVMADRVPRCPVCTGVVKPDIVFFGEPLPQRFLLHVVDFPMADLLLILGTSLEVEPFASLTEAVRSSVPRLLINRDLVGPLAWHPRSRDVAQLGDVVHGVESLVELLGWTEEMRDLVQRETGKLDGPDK
Experimental: (§1) Deacetylase assays were performed in a total volume of 100 μl SIRT deacetylase buffer (4 mM MgCl2, 0.2 mM dithiothreitol, 50 mM Tris-HCl, pH 9.0) containing immunoprecipitated proteins or mitochondrial lysates and a peptide corresponding to the first the first 22 amino acids of histone 4 chemically acetylated in vitro (27). Where indicated, 1 mM NAD, 5 mM nicotinamide (both from Sigma, St. Louis, Mo.) or 400 nM TSA (WAKO, Richmond, Va.) were added. Deacetylation reactions were stopped after 2 hours of incubation at room temperature by adding 25 μl stop solution (0.1 M HCl, 0.16 M acetic acid). Released acetate was extracted into 500 μl ethyl acetate and samples were vigorously shaken for 15 minutes. After centrifugation for 5 minutes, 400 μl of the ethyl acetate fraction was mixed with 5 ml scintillation fluid (Packard, Meriden, Conn.) and the released radioactivity was measured using a liquid scintillation counter.
In vitro deacetylase activities of equal amounts of mitochondrial lysate are shown.

[2] = system: NAD-dependent deacetylase activity in human mitochondrial fractions prepared from HEK293T cells; assay: In vitro deacetylase assay on mitochondrial lysates, acetylated histone H4 peptide; details: NAD 1 mM, 2 hrs
Experimental: as §1
Mitochondrial lysates were prepared from HEK293T cells and protein content was determined. […] Samples were incubated for 2 hrs at 25° C.

CC(C)[C@@H]1NC(=O)[C@H](C)OC(=O)[C@@H](C(C)C)NC(=O)[C@@H](C(C)C)OC(=O)[C@H](C(C)C)NC(=O)[C@H](C)OC(=O)[C@@H](C(C)C)NC(=O)[C@@H](C(C)C)OC(=O)[C@H](C(C)C)NC(=O)[C@H](C)OC(=O)[C@@H](C(C)C)NC(=O)[C@@H](C(C)C)OC1=O [valinomycin]
effect on import of hSIRT3 across the mitochondrial membrane [1]: inhibited

CC(/C=C/C(=O)NO)=C\[C@@H](C)C(=O)c1ccc(N(C)C)cc1 [TSA, trichostatin A]
sensitivity of deacetylase activity of mitochondrial lysates overexpressing hSIRT3 (hSIRT3): same properties as untransfected mitochondrial lysates | effect on NAD-dependent deacetylase activity of mitochondrial lysate ([2]; TSA 400 nM): no effect

NC(=O)c1cccnc1 [nicotinamide]
effect on NAD-dependent deacetylase activity of mitochondrial lysate ([2]; nicotinamide 5 mM): suppressed

antimycin
effect on import of hSIRT3 across the mitochondrial membrane [1]: inhibited

CC[C@H]1/C=C/C=C/C[C@@H](C)[C@H](O)[C@@](C)(O)C(=O)[C@@H](C)[C@H](O)[C@@H](C)C(=O)[C@@H](C)[C@H](O)[C@@H](C)/C=C/C(=O)O[C@@H]2[C@H](C)[C@H](CC1)O[C@]1(CC[C@H](C)[C@H](C[C@@H](C)O)O1)[C@H]2C [oligomycin]
effect on import of hSIRT3 across the mitochondrial membrane [1]: inhibited

— patent publication US7273713B2, “Methods of modulating mitochondrial NAD-dependent deacetylase” (The Regents of the University of California, priority 2002, dated 2007)
